Assay results reported in ChEMBL document CHEMBL1126630, “Adenosine-5'-carboxaldehyde: a potent inhibitor of S-adenosyl-L-homocysteine hydrolase” (J Med Chem, 1993).
pKi: −log10 of the molar value.

Tests used:
Adenosylhomocysteinase = biological target: T1, Adenosylhomocysteinase (Rattus norvegicus, UniProt P10760); assay: Inhibitory activity against recombinant rat liver S-adenosyl-homocysteine hydrolase
T1 sequence (P10760 whole entry): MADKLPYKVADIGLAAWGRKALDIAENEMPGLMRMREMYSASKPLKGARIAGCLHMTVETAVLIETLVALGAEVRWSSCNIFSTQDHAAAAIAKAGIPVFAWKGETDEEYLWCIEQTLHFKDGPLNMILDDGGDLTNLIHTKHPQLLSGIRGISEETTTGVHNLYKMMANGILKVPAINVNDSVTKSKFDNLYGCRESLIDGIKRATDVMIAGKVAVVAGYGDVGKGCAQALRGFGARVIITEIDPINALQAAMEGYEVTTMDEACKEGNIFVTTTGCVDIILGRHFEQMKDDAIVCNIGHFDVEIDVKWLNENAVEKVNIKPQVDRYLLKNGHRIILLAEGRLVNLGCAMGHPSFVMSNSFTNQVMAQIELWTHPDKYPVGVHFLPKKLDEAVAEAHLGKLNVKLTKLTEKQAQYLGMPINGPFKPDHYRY

[1] = biological target: T2, Adenosylhomocysteinase (Rattus norvegicus) (UniProt P10760)
T2 sequence (whole entry): T1 sequence (P10760 whole entry)
Description: Rate constant for recombinant rat liver S-adenosyl-homocysteine hydrolase inactivation

| pKi (Adenosylhomocysteinase) | k2 [1] [min⁻¹] | SMILES |
| --- | --- | --- |
| 7.40 | 0.05 | Nc1ncnc2c1ncn2[C@@H]1O/C(=C/F)[C@H](O)[C@@H]1O |
| 7.37 | 0.22 | Nc1ncnc2c1ncn2[C@@H]1O[C@H](C=O)[C@@H](O)[C@H]1O |
| 7.41 | 0.082 | Nc1ncnc2c1ncn2[C@@H]1O/C(=C\F)[C@H](O)[C@@H]1O |
| 7.41 | 0.65 | Nc1ncnc2c1ncn2[C@@H]1O[C@@H](C=O)[C@@H](O)[C@H]1O |
